# Assay results from ChEMBL document CHEMBL1156528, “Acetyl-lysine analog peptides as mechanistic probes of protein deacetylases” (J Biol Chem, 2007).
# Molecular target: NAD-dependent protein deacetylase HST2 (Saccharomyces cerevisiae S288c, UniProt P53686)
# Assay: Binding affinity to Saccharomyces cerevisiae Hst2 by isothermal titration calorimetry
# NAD-dependent protein deacetylase HST2, sequence (P53686 whole entry): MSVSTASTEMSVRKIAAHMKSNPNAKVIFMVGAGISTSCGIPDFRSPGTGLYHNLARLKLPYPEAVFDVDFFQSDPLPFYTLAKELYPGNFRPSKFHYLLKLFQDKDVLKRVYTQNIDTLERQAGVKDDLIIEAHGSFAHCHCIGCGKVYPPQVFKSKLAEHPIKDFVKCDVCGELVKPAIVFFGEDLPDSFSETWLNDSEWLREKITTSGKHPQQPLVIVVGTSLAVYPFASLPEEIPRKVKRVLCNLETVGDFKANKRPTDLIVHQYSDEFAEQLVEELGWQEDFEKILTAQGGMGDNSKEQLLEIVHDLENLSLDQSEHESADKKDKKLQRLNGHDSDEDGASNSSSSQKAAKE
row,Kd,Compound
1,3.3 µM,C[C@H](NC(=O)[C@H](CCCCNC(N)=O)NC(=O)CNC(=O)CNC(=O)[C@@H](NC(=O)[C@H](CO)NC(=O)[C@@H](N)CCCCN)[C@@H](C)O)C(=O)N1CCC[C@H]1C(=O)N[C@@H](CCCN=C(N)N)C(=O)N[C@@H](CCCCN)C(=O)N[C@@H](CCC(N)=O)C(=O)O
2,3.3 µM,C[C@H](NC(=O)[C@H](CCCCNC(=O)CO)NC(=O)CNC(=O)CNC(=O)[C@@H](NC(=O)[C@H](CO)NC(=O)[C@@H](N)CCCCN)[C@@H](C)O)C(=O)N1CCC[C@H]1C(=O)N[C@@H](CCCNC(=N)N)C(=O)N[C@@H](CCCCN)C(=O)N[C@@H](CCC(N)=O)C(=O)O
3,3.3 µM,C[C@H](NC(=O)[C@H](CCCCNC(=N)N)NC(=O)CNC(=O)CNC(=O)[C@@H](NC(=O)[C@H](CO)NC(=O)[C@@H](N)CCCCN)[C@@H](C)O)C(=O)N1CCC[C@H]1C(=O)N[C@@H](CCCNC(=N)N)C(=O)N[C@@H](CCCCN)C(=O)N[C@@H](CCC(N)=O)C(=O)O
4,3.3 µM,CC(=N)NCCCC[C@H](NC(=O)CNC(=O)CNC(=O)[C@@H](NC(=O)[C@H](CO)NC(=O)[C@@H](N)CCCCN)[C@@H](C)O)C(=O)N[C@@H](C)C(=O)N1CCC[C@H]1C(=O)N[C@@H](CCCN=C(N)N)C(=O)N[C@@H](CCCCN)C(=O)N[C@@H](CCC(N)=O)C(=O)O
5,3.3 µM,C[C@H](NC(=O)[C@H](CCCCNC(=O)C(F)F)NC(=O)CNC(=O)CNC(=O)[C@@H](NC(=O)[C@H](CO)NC(=O)[C@@H](N)CCCCN)[C@@H](C)O)C(=O)N1CCC[C@H]1C(=O)N[C@@H](CCCN=C(N)N)C(=O)N[C@@H](CCCCN)C(=O)N[C@@H](CCC(N)=O)C(=O)O
6,16 µM,CCCC(=O)NCCCC[C@H](NC(=O)CNC(=O)CNC(=O)[C@@H](NC(=O)[C@H](CO)NC(=O)[C@@H](N)CCCCN)[C@@H](C)O)C(=O)N[C@@H](C)C(=O)N1CCC[C@H]1C(=O)N[C@@H](CCCN=C(N)N)C(=O)N[C@@H](CCCCN)C(=O)N[C@@H](CCC(N)=O)C(=O)O
7,3.3 µM,CC(=S)NCCCC[C@H](NC(=O)CNC(=O)CNC(=O)[C@@H](NC(=O)[C@H](CO)NC(=O)[C@@H](N)CCCCN)[C@@H](C)O)C(=O)N[C@@H](C)C(=O)N1CCC[C@H]1C(=O)N[C@@H](CCCNC(=N)N)C(=O)N[C@@H](CCCCN)C(=O)N[C@@H](CCC(N)=O)C(=O)O

row,Compound,Kd
1,C[C@H](NC(=O)[C@H](CCCCNC(=O)CF)NC(=O)CNC(=O)CNC(=O)[C@@H](NC(=O)[C@H](CO)NC(=O)[C@@H](N)CCCCN)[C@@H](C)O)C(=O)N1CCC[C@H]1C(=O)N[C@@H](CCCNC(=N)N)C(=O)N[C@@H](CCCCN)C(=O)N[C@@H](CCC(N)=O)C(=O)O,3.3 µM
